Patent EP4818193A1, “COMPOSITION AND METHOD FOR TREATING NEONATAL HYPOXIC-ISCHEMIC ENCEPHALOPATHY” (Suzhou Glenkol Pharma Technology Co., Ltd., priority 2023, dated 2025)

Key:
[1] = tested on: cerebral cortical neural cells; assay: Lactate dehydrogenase (LDH) cytotoxicity assay after oxygen-glucose deprivation; assay type: cell-based, neonatal rats; parameters: dose or concentration left out as unconfirmed; conditions: added at initiation of oxygen-glucose deprivation; 24 hours after injury; compared to untreated oxygen-glucose deprivation group, p < 0.05
[2] = tested on: cerebral cortical neural cells; assay: MTT assay for cell viability after oxygen-glucose deprivation; assay type: cell-based, neonatal rats; parameters: dose or concentration left out as unconfirmed; conditions: added at initiation of oxygen-glucose deprivation; 24 hours after injury; compared to untreated oxygen-glucose deprivation group, p < 0.05

With Davunetide [NaP] the LDH release levels [1] was “significantly reduced” and the MTT formation levels [2] was “significantly increased”.
